In data set [1] the test system is Aspergillus fumigatus HIC 6094. Put plainly: Antifungal MIC, Sabouraud glucose liquid medium. The format is cell-based. The source says: (§1) The present inventors also evaluated antifungal activity of glionitrins A and B against those strains distributed from American Type Culture Collection (ATCC, Manassas, Va., USA) such as Aspergillus fumigatus HIC 6094 and Trichophyton rubrum IFO 9185. […] To determine MIC of glionitrin for those two fungus strains, spores of the fungus strains were suspended in sterilized distilled water at the density of 10^5 spores/mL and the density was adjusted by using Sabouraud glucose liquid medium (Difco) to 10^3 cells/mL. Then, the cells were distributed in a 96-well plate at the density of 10^2 cells/100 μl/well, to which glionitrin was added at different concentrations, followed by culture at 28° C. for […]. The concentration of glionitrin at which no fungi growth was confirmed was determined as MIC.

In data set [2] the test system is Trichophyton rubrum IFO 9185. Put plainly: Antifungal MIC, Sabouraud glucose liquid medium. The format is cell-based.
Description: as §1

Data set [3] concerns Micrococus leuteus IFC 12708[G(+)]. Put plainly: Antibacterial MIC, broth dilution, OD600. The format is cell-based, Micrococcus leuteus. Conditions: Micrococcus. The procedure: (§2) The present inventors also investigated antibacterial effect of glionitrin A and glionitrin B using Micrococcus leuteus IFC 12708, Bacillus subtilis ATCC 6633, Proteus vulgaris ATCC 3851, Salmonella typhimurium ATCC 1 4028 and 3 MRSA strains, Staphylococcus aureus ATCC 43300, S. aureus ATCC 700787 and S. aureus ATCC 700788 distributed from American Type Culture Collection (ATCC, Manassas, Va., USA). […] Then, the medium was eliminated and 100 μl of medium containing 10^5 cfu/mL of each strain was loaded in each well of a 96-well plate. Glionitrin diluted at different concentrations was added thereto, followed by culture at 37° C. for 24 hours. 24 hours later, OD600 was measured.
(In general: In broth dilution the organism is exposed to a series of concentrations in liquid medium.)

Data set [4] relates to Bacillus subtilis ATCC 6633 [G(+)]. Put plainly: Antibacterial MIC, broth dilution, OD600. Format: cell-based. On the procedure: as §2
Data set [5] deals with Proteus vulgaris ATCC 3851[G(−)]. Put plainly: Antibacterial MIC, broth dilution, OD600. Format: cell-based. On the procedure: as §2
Data set [6] deals with S. aureus ATCC 700787(MRSA). Put plainly: Antibacterial MIC, broth dilution, OD600. Format: cell-based. Conditions: Staphylococcus aureus, 24 h. The procedure:
as §2

Data set [7] relates to S. aureus ATCC 700788(MRSA). Put plainly: Antibacterial MIC, broth dilution, OD600. The format is cell-based. The note with it: Staphylococcus aureus. On the procedure:
as §2

Data set [8] has as its system Salmonella typhimurium ATCC 14028[G(−)]. Put plainly: Antibacterial MIC, broth dilution, OD600. The note with it: Salmonella enterica. Format: cell-based. On the procedure: as §2
Data set [9] relates to Staphylococcu aureus ATCC 4330(MRSA). Put plainly: Antibacterial MIC, broth dilution, OD600. Format: cell-based. Conditions: Staphylococcus aureus, 24 h. On the procedure: as §2
Data set [10] has as its system A549 (lung cancer, CCL-185). Put plainly: In vitro MTT cytotoxicity assay. Conditions: Homo sapiens, A549, 24 h. The format is cell-based. The procedure: (§3) The present inventors investigated cytotoxic effect of glionitrin on cancer cells with in vitro MTT (3-[4,5-dimethylthiazol-2-yl]-2,5-diphenyltrazdium bromide) assay to quantify live cancer cells. Cancer cell cytotoxicity of glionitrin was evaluated using AGS (stomach cancer, ATCC CRL-1739™), HepG2 (liver cancer, HB-8065™), HCT116 (colon cancer, CCL-247™), A549 (lung cancer, CCL-185™) and DU145 (prostatic cancer, HTB-81™) distributed from American Type Culture Collection (ATCC, Manassas, Va., USA). Stomach cancer (AGS), liver cancer (HepG2), colon cancer (HCT-116), lung cancer (A549) or prostatic cancer (DU-145) cells were distributed in a 96-well plate at the density of 1×10^4 cells/100 μl/well, followed by culture in a 37° C., CO2 incubator for 24 hours. Then, the medium was replaced with a fresh one containing glionitrin, followed by culture at 37° C. 24 hours later, MTT solution was added thereto by 10 μl/well, followed by further culture for 1 hour at 37° C. One hour later, formazane generated by reductase in live cells was quantified by measuring OD450.

In data set [11] the test system is AGS (stomach cancer, ATCC CRL-1739). Put plainly: In vitro MTT cytotoxicity assay. The format is cell-based. The note with it: 24 h. The procedure:
as §3
(Tetrazolium assays rely on reduction of a dye to a coloured formazan, in cell work by metabolically active cells.)

Data set [12] has as its system DU-145 (prostatic cancer, HTB-81). Put plainly: In vitro MTT cytotoxicity assay. Format: cell-based. Conditions: Homo sapiens, DU-145, 24 h. On the procedure:
as §3

In data set [13] the test system is HCT-116 (colon cancer, CCL-247). Put plainly: In vitro MTT cytotoxicity assay. The format is cell-based. The note with it: Homo sapiens, HCT-116, 24 h. The procedure: as §3
For data set [14], the system named is HepG2 (liver cancer, HB-8065). Put plainly: In vitro MTT cytotoxicity assay. Format: cell-based. Conditions: Homo sapiens, HepG2, 24 h. On the procedure:
as §3

Data set [15] deals with MCF-7. Put plainly: In vitro MTT cytotoxicity assay. Format: cell-based. Conditions: Homo sapiens, MCF7.
The subject of data set [16] is 4 non-resistant strains. Put plainly: Antibacterial MIC. The format is cell-based. On the procedure:
as §2

Data set [17] has as its system 3 MRSA strains. Put plainly: Antibacterial MIC. The format is cell-based, Staphylococcus aureus. Conditions: against 3 MRSA strains. On the procedure: as §2
The subject of data set [18] is Aspergillus fumigatus HIC 6094 and Trichophyton rubrum IFO 9185. Put plainly: Antifungal MIC. Format: cell-based.
Description: as §1

A short description of data set [19]: Stability of glionitrin A in solution at room temperature. The format is physicochemical. The note with it: water, acetonitrile aqueous solution, methanol aqueous solution or DMSO. The source says:
The chemical structures of the separated compounds were identified by using MS and nuclear spectrometer. As a result, it was confirmed that glionitrin A was amorphous light yellow powder represented by the molecular formula of C13H11N3O5S2 which had the molecular weight of 353, and glionitrin B was colorless mucous semi-solid material represented by the molecular formula of C15H17N3O5S2 which had the molecular weight of 383.
The present inventors performed instrumental analysis with glionitrins to determine the chemical formulas of glionitrin A and glionitrin B. The separated glionitrin A was left in water or DMAO at room temperature. […] Glionitrin A was measured in chloroform-d solvent and glionitrin B was measured in methanol-d4 solvent.

The subject of data set [20] is 7 bacterial strains. Put plainly: Antibacterial activity, text summary for the 7 bacterial strains. The format is cell-based. The note with it: every experimental group (7 bacterial strains). The procedure: as §2
The mark [21] stands for this setting: Micrococus leuteus IFC 12708, 37° C., 24 hours, read-out: MIC.
The mark [22] stands for this setting: ATCC6633, Bacillus subtilis ATCC 6633, 37° C., 24 hours, read-out: MIC.
Where [23] appears, read: ATCC3851, Proteus vulgaris ATCC 3851, 37° C., 24 hours, read-out: MIC.
[24] abbreviates: Salmonella typhimurium ATCC 14028, 37° C., 24 hours, read-out: MIC.

SMILES strings stand for the structures. In brackets after ≈: the same amount, converted by molar mass. Where two headings read alike, the source gives them in different places.

In general, MIC refers to the smallest concentration in the dilution series that meets the test's criterion for growth inhibition. As to `C[C@@H]1[C@H](O)[C@@H](C)/C=C/C=C/C=C/C=C/C=C/C=C/C=C/[C@H](O[C@@H]2O[C@H](C)[C@@H](O)[C@H](N)[C@@H]2O)C[C@@H]2O[C@](O)(C[C@@H](O)C[C@@H](O)[C@H](O)CC[C@@H](O)C[C@@H](O)CC(=O)O[C@H]1C)C[C@H](O)[C@H]2C(=O)O` [amphotericin B, reference compound], the MIC amounted to 1.56 µg/mL (≈ 1.69 µM) in data set [1] (Aspergillus fumigatus HIC 6094, 28° C.) and 1.56 µg/mL (≈ 1.69 µM) in [2] (Trichophyton rubrum IFO 9185, 28° C.).
Turning to `CC1(C)S[C@@H]2[C@H](NC(=O)[C@H](N)c3ccccc3)C(=O)N2[C@H]1C(=O)O` [ampicillin, reference compound], the MIC stood at 0.78 µg/mL (≈ 2.23 µM) in [3] (setting [21]); 3.13 µg/mL (≈ 8.96 µM) in data set [4] (setting [22]); 1.56 µg/mL (≈ 4.46 µM) in [5] (setting [23]); 12.5 µg/mL (≈ 35.8 µM) in data set [6]; 25 µg/mL (≈ 71.5 µM) in [7] (S. aureus ATCC 700788 (MRSA), 37° C., 24 hours, read-out: MIC); 12.5 µg/mL (≈ 35.8 µM) in data set [8] (setting [24]). In [9], this compound showed a minimum inhibitory concentration (MIC) of 12.5 µg/mL (≈ 35.8 µM).
As a reminder, the IC50 is the concentration needed to halve the response being measured. Take `CN1C(=O)C23Cc4ccc([N+](=O)[O-])cc4N2C(=O)C1(CO)SS3` (stereo not shown) [glionitrin A]: the IC50 in data set [10] was 0.55 ± 0.07 µM; in [11], 0.45 ± 0.11 µM; in data set [12], 0.24 ± 0.02 µM; in [13], 0.82 ± 0.11 µM; in data set [14], 2.28 ± 0.3 µM; in data set [15] it was more than 2 µM. Also, the MIC in data set [3] (24 h) is 0.78 µg/mL (≈ 2.21 µM); in data set [4] (Bacillus subtilis, ATCC6633, 24 h) it was 6.25 µg/mL (≈ 17.7 µM); in data set [5] (Proteus vulgaris, ATCC3851, 24 h), 3.13 µg/mL (≈ 8.86 µM); in data set [6], 0.78 µg/mL (≈ 2.21 µM); in [7] (24 h), 0.78 µg/mL (≈ 2.21 µM); in data set [8] (24 h), 3.13 µg/mL (≈ 8.86 µM). The MIC in data set [9] is 0.78 µg/mL (≈ 2.21 µM); in data set [1] (Aspergillus fumigatus, HIC6094), 12.5 µg/mL (≈ 35.4 µM); in data set [2] (Trichophyton rubrum, IFO9185) it was 12.5 µg/mL (≈ 35.4 µM); in data set [16], 0.78 to 3.13 µg/mL (≈ 2.21 to 8.86 µM); in [17] (Staphylococcus aureus), 0.78 µg/mL (≈ 2.21 µM); in data set [18] (read-out: MIC (antifungal activity)), 12.5 µg/mL (≈ 35.4 µM). Moreover, the “antibacterial activity relative to ampicillin” value in [17] (versus positive control ampicillin) was 15 times. Besides, the stability in solution entry in data set [19] was “trisulfide (glionitrin C) and tetrasulfide (glionitrin D) were generated”.
As to `CSC1(CO)C(=O)N2c3cc([N+](=O)[O-])ccc3CC2(SC)C(=O)N1C` (stereo not shown) [glionitrin B], the IC50 was 2.25 ± 0.25 µM in data set [10] (MTT, read-out: IC50); 1.25 ± 0.2 µM in data set [11] (AGS, MTT, read-out: IC50); 2.29 ± 0.14 µM in data set [12] (MTT, read-out: IC50); 3.28 ± 0.55 µM in data set [13] (MTT, read-out: IC50); more than 2 µM in data set [14] (MTT, read-out: IC50); more than 2 µM in data set [15] (MCF-7, MTT, read-out: IC50). The MIC in data set [3] (setting [21]) is more than 100 µg/mL; in [4] (setting [22]), more than 100 µg/mL; in [5] (setting [23]), more than 50 µg/mL; in data set [6] it was more than 50 µg/mL; in data set [7] (24 h), more than 50 µg/mL; in data set [8] (setting [24]) it was more than 50 µg/mL. Besides, the MIC was more than 50 µg/mL in [9]; more than 50 µg/mL in [1] (HIC6094, Aspergillus fumigatus HIC 6094, 28° C., read-out: MIC); more than 50 µg/mL in [2] (IFO9185, Trichophyton rubrum IFO 9185, 28° C., read-out: MIC). In addition, the antifungal activity result in data set [18] (Aspergillus fumigatus HIC 6094 and Trichophyton rubrum IFO 9185) is given as “did not show antifungal activity”. Also, the antibacterial activity entry in data set [20] is given as “no antibacterial activity at all”.
